In US11066444B2, “BMP-2-binding peptide amphiphile nanofibers” (Northwestern University, priority 2014, dated 2021):
Several values for one entry are separate records, joined by “and”; a condition that tells them apart may be missing. Equal entries are not always repeated. Residues, ends and D or L forms follow the SMILES beside them. *: point of attachment. Lauroyl = CCCCCCCCCCCC(=O)*

How the values were obtained:
C2C12 cells [1] = assay: Real-time PCR of osteogenic genes (Runx2, Osx, Ocn); assay type: cell-based; conditions: 50 ng/mL BMP-2, 10 μg/mL, 2 days
Description: C2C12 cells were treated with 50 ng/ml BMP-2 in the presence of 10 μg/mL heparin or PAs until Day 2, and the osteogenic gene expression levels were determined by real-time PCR as described by Zhao et al. (n=4, in triplicate experiments). Briefly, total RNAs were isolated from cells using TRIzol (Invitrogen) and reverse-transcribed using iScript Reverse Transcription Supermix (Bio-Rad, Des Plaines, Ill.). PCR amplification was analyzed with iQ5 Real-Time PCR Detection System (Bio-Rad) using iQ SYBR Green Supermix (Bio-Rad) and the following primers: Runx2 types II & III (Runx2), 5′-[…]-3′(SEQ ID NO:5) and 5′-CCAAAAGAAGCTTTGCTG-3′ (SEQ ID NO:6); Osterix (Osx), 5′-[…]-3′(SEQ ID NO:7) and 5′-[…]-3′(SEQ ID NO:8); Osteocalcin (Ocn), 5′-[…]-3′(SEQ ID NO:9) and 5′-[…]-3′(SEQ ID NO:10); and Glyceraldehyde-3-phosphate dehydrogenase (GAPDH), 5′-[…]-3′(SEQ ID NO:11) and 5′-[…]-3′(SEQ ID NO:12) (IDT, Coralville, Iowa). For PCR amplification, cDNA was denatured at 94° C. for 5 min, then underwent 40 repeated cycles at 94° C. for 45 s, annealing at 55° C. for 1 min, and extension at 68° C. for 1 min, followed by 79 repeated cycles at 55° C. for 30 s for generation of a melting curve. Expression values of Runx2 II, Osx, and Ocn were normalized to the respective GAPDH levels, and all treatments were normalized to control (BMP-2 only) treatment in order to represent relative fold increase.

C2C12 cells [2] = assay: Cell cytotoxicity assay (LDH release, live/dead); assay type: cell-based; conditions: 10 μg/mL, 5 h, without BMP-2
Description: C2C12 cells were treated with 10 μg/mL heparin or PAs for 5 h (Day 0), and a fraction of the media was collected to measure the presence of lactate dehydrogenase (LDH), a cytosolic enzyme only released upon cell lysis, using CytoTox 96 Non-Radioactive Cytotoxicity Assay (Promega, Madison, Wis.) (n=6). In addition, the remaining cells were stained for viable and dead cells using LIVE/DEAD Viability/Cytoxocity Kit (Invitrogen, Grand Island, N.Y.).

C2C12 cells [3] = assay: Alkaline phosphatase (ALP) stain, BMP-2-induced osteoblast differentiation; assay type: cell-based; conditions: 50 ng/mL BMP-2, PA or heparin 0.1-10 μg/mL, 3 days
Description: (§1) C2C12 pre-myoblasts were maintained and treated with BMP-2 as depicted in FIG. 5A. C2C12 cells were seeded at 2×10^4 cells/cm2 in 24-well plates in growth media (DMEM with 10% heat-inactivated FBS and 100 U/mL penicillin/streptomycin, P/S) 1 day before treatment. On the following day (Day 0), growth media was replaced with 900 μL maintenance media (growth media with 2.5% FBS) and 100 μL treatment media containing BMP-2 with heparin or PAs. Preparation of the treatment media was as follows: 2.5 μL of BMP-2 stock ([…]) was mixed with 5 μL of heparin or PA stock solutions (0.02, 0.2, or 2 mg/mL), incubated for 5 min on ice, then mixed with DMEM (100 U/mL P/S) to a final volume of 100 μL, followed by 5 min incubation on ice. For treatments with BMP-2 only, the treatment media was prepared according to the method described except without heparin or PAs. Final working concentrations were 50 ng/mL BMP-2 and a range of 0.1, 1, to 10 μg/mL heparin or PAs.
The presence of ALP was stained as a marker for osteoblast differentiation on day 3 by enzymatic labeling described by Mason and Woolston (herein incorporated by reference in its entirety). C2C12 cell layer was fixed with 4% paraformaldehyde (PFA) for 30 s, washed with PBS three times, and stained for 1 h with Naphthol AS-MX phosphate (Sigma-Aldrich, St. Louis, Mo.) and Fast Blue BB salt (Sigma-Aldrich) in 0.1M Tris-HCl at pH 8.2, followed by washing with PBS.

[4] = Critical micelle concentration by Nile red fluorescent probe assay; assay type: physicochemical; conditions: pH 7.4, Nile red
Description: To assess PA nanofiber stability, we measured the critical micelle concentration (CMC) of PAs by Nile red fluorescent probe assay (Boekhoven, A. M. Brizard, P. van Rijn, M. C. A. Stuart, R. Eelkema, J. H. van Esch, Angewandte Chemie (International ed in English) 2011, 50, 12285; herein incorporated by reference in its entirety). At pH 7.4, the supramolecular assembly of the BMP-2-binding PA was detected at above 666 nM (1.5 μg/mL), and that of the diluent PA was detected at above 1 μM (1.2 μg/mL) (FIG. 3). The binding affinities of the PAs to BMP-2 were investigated by surface plasmon resonance (SPR) using hexahistidine-tagged BMP-2 (His-BMP-2) that was immobilized on the surface via nickel (II)-nitrilotriacetic acid (Ni^2+-NTA) chelation (Knecht, D. Ricklin, A. N. Eberle, B. Ernst, J. Mol. Recognit. 2009, 22, 270; herein incorporated by reference in its entirety). As a control, the BMP-2-binding PA (1 μm, pH 7.4) was injected to a bare NTA-dextran chip, and we observed non-specific binding of the PA to the surface (FIG. 4). […]
Critical micelle concentration measurements were performed using Nile Red fluorescence spectroscopy. […] These samples were vortexed, sonicated, and were allowed to equilibrate for 24 hours before fluorescence spectra were obtained. For pH 8.5, PA samples were horn sonicated prior to the addition of Nile Red, and fluorescence spectra were obtained the same day.

C2C12 cells [5] = assay: Alkaline phosphatase (ALP) activity assay, BMP-2-induced osteoblast differentiation; assay type: cell-based; conditions: 10 μg/mL, without BMP-2, 4 days
Description: as §1, with “Final working concentrations were 50 ng/mL BMP-2 and a range of 0.1, 1, to 10 μg/mL heparin or PAs.” left out
ALP activity from C2C12 cell layer was measured using QUANTI-Blue ALP substrate (InvivoGen, San Diego, Calif.). […] The plate was incubated at 37° C. for 18 h and absorbance was measured at 630 nm on SpectraMax M5 Microplate Reader (Molecular Devices, Sunnyvale, Calif.). […] The absorbance values from QUANTI-Blue ALP assay was normalized by the amount of dsDNA in each sample, and the resulting values from heparin and PA treatments were normalized to control (BMP-2 only) to represent the relative fold increase (n=3, in triplicate experiments).

Molecule	osteoblastic differentiation by mRNA levels relative to BMP-2 alone (C2C12 cells [1])	cytotoxicity (C2C12 cells [2])	number of ALP-positive cells (C2C12 cells [3])	critical micelle concentration (supramolecular assembly detected at above) [4]	ALP expression without BMP-2 (C2C12 cells [5])
CCCCCCCCCCCC(=O)NCCCC[C@H](NC(=O)[C@@H](NC(=O)[C@@H](NC(=O)[C@@H](NC(=O)[C@H](C)NC(=O)[C@H](C)NC(=O)[C@H](C)NC(=O)[C@H](CCC(=O)O)NC(=O)[C@H](CCC(=O)O)NC(=O)[C@H](CCC(=O)O)NC(=O)[C@H](CO)NC(=O)CNC(=O)CNC(=O)CNC(=O)[C@H](Cc1ccc(O)cc1)NC(=O)[C@@H]1CCCN1C(=O)[C@@H](NC(=O)[C@H](Cc1c[nH]cn1)NC(=O)[C@@H]1CCCN1C(=O)[C@H](CO)NC(=O)[C@@H](N)[C@@H](C)O)C(C)C)C(C)C)C(C)C)C(C)C)C(N)=O [BMP-2-binding PA, C12-(K)V3A3E3-SGGGYPVHPST-NH2] (H-TSPHVPYGGGSEEEAAAVVVK(Lauroyl)-NH2; N-terminus and C-terminus assumed)	enhanced osteoblastic differentiation	did not induce cytotoxicity	slight increase in the number of ALP-positive cells	above 666 nM and > 1.5 μg/mL	
CCCCCCCCCCCCCCCC(=O)N[C@H](C(=O)N[C@H](C(=O)N[C@H](C(=O)N[C@@H](C)C(=O)N[C@@H](C)C(=O)N[C@@H](C)C(=O)N[C@@H](CCC(=O)O)C(=O)N[C@@H](CCC(=O)O)C(=O)N[C@@H](CCC(=O)O)C(=O)O)C(C)C)C(C)C)C(C)C [diluent PA, C16-V3A3E3-COOH] (HELM PEPTIDE1{[CCCCCCCCCCCCCCCC(=O)[*:2]].V.V.V.A.A.A.E.E.E}$$$$V2.0)	enhanced osteoblastic differentiation	did not induce cytotoxicity	increased number of ALP-positive cells	above 1 μM and > 1.2 μg/mL	
heparin sodium [reference compound]	enhanced osteoblastic differentiation	did not induce cytotoxicity	directly proportional association of the number of ALP-positive cells with heparin concentrations up to 10 μg/mL		did not promote ALP expression
